Test results from ChEMBL document CHEMBL1138139, “Synthesis of 1-(3',4',5'-trimethoxy) phenyl naphtho[2,1b]furan as a novel anticancer agent” (Bioorg Med Chem Lett, 2006).
In brackets after ≈: the same amount, converted by molar mass.

Experiments:
Format in all cases: functional, cell-based
KB = assay: Cytotoxicity against human KB403 cell line by MTT assay
PA-1 = assay: Cytotoxicity against human PA1 cell line by MTT assay
WRL68 = assay: Cytotoxicity against human WRL68 cell line by MTT assay
COLO 320DM = assay: Cytotoxicity against human COLO320DM cell line by MTT assay
Caco-2 = assay: Cytotoxicity against human Caco-2 cell line by MTT assay
MCF7 = assay: Cytotoxicity against MCF7 cell line by MTT assay; conditions: Homo sapiens

| Compound | IC50 (KB) [µg/mL] | IC50 (PA-1) [µg/mL] | IC90 (PA-1) [µg/mL] | IC90 (KB) [µg/mL] | IC50 (WRL68) [µg/mL] | IC90 (WRL68) [µg/mL] | IC50 (COLO 320DM) [µg/mL] | IC90 (COLO 320DM) [µg/mL] | IC50 (Caco-2) [µg/mL] | IC90 (Caco-2) [µg/mL] | IC90 (MCF7) [µg/mL] |
| --- | --- | --- | --- | --- | --- | --- | --- | --- | --- | --- | --- |
| c1ccc(-c2coc3ccc4ccccc4c23)cc1 | 9 (≈ 36.8 µM) | – | – | – | – | – | – | – | – | – | – |
| COc1cc(-c2coc3ccc4ccccc4c23)cc(OC)c1OC | 8 (≈ 23.9 µM) | 3.5 (≈ 10.5 µM) | 4.5 (≈ 13.5 µM) | 10 (≈ 29.9 µM) | 0.7 (≈ 2.09 µM) | 5 (≈ 15 µM) | 0.65 (≈ 1.94 µM) | 4 (≈ 12 µM) | 0.5 (≈ 1.5 µM) | – | – |
| COc1ccc(-c2coc3ccc4ccccc4c23)cc1 | – | 4 (≈ 14.6 µM) | 8 (≈ 29.2 µM) | – | 6 (≈ 21.9 µM) | – | 5 (≈ 18.2 µM) | – | 0.95 (≈ 3.46 µM) | 7.5 (≈ 27.3 µM) | – |
| CC(=O)O[C@H]1C(=O)[C@@]2(C)[C@H]([C@H](OC(=O)c3ccccc3)[C@]3(O)C[C@H](OC(=O)[C@H](O)[C@@H](NC(=O)c4ccccc4)c4ccccc4)C(C)=C1C3(C)C)[C@]1(OC(C)=O)CO[C@@H]1C[C@@H]2O [PACLITAXEL] | 0.001 (≈ 0.00117 µM) | 0.006 (≈ 0.00703 µM) | 0.9 (≈ 1.05 µM) | 0.047 (≈ 0.055 µM) | 0.0035 (≈ 0.0041 µM) | 2.5 (≈ 2.93 µM) | 0.0045 (≈ 0.00527 µM) | 0.01 (≈ 0.0117 µM) | 0.007 (≈ 0.0082 µM) | 0.065 (≈ 0.0761 µM) | 0.85 (≈ 0.995 µM) |
